Assay results: ChEMBL document CHEMBL4038272, “Synthesis and biological evaluation of novel podophyllotoxin-NSAIDs conjugates as multifunctional anti-MDR agents against resistant human hepatocellular carcinoma Bel-7402/5-FU cells” (Eur J Med Chem, 2017)
Calls of active or inactive are those of the source. No cut-off for these calls is given here.

Assays:
[1] = tested on: Bel7402/5-FU; experiment: Effect on iNOS expression in human Bel7402/5-FU cells assessed as ratio of iNOS to beta-actin level at 2 uM after 48 hrs by Western blot analysis (reference value: 0.13); assay type: functional
[2] = tested on: Bel7402/5-FU; experiment: Induction of apoptosis in human Bel7402/5-FU cells assessed as live cells at 2 uM after 48 hrs by Annexin V-APC/7-AAD staining based flow cytometry (reference value: 91.08%); assay type: functional
[3] = tested on: Bel7402/5-FU; experiment: Induction of apoptosis in human Bel7402/5-FU cells assessed as morphological changes at 2 uM after 24 hrs by Hoechst 33342 staining based fluorescent microscopic method; assay type: functional, cell-based
[4] = tested on: Bel7402/5-FU; experiment: Effect on E-cadherin expression in human Bel7402/5-FU cells assessed as ratio of E-cadherin to beta-actin level at 2 uM after 48 hrs by Western blot analysis (reference value: 0.2); assay type: functional
[5] = tested on: Bel7402/5-FU; experiment: Induction of apoptosis in human Bel7402/5-FU cells assessed as necrotic cells at 2 uM after 48 hrs by Annexin V-APC/7-AAD staining based flow cytometry (reference value: 0.58%); assay type: functional
[6] = tested on: Bel7402/5-FU; experiment: Induction of apoptosis in human Bel7402/5-FU cells assessed as ratio of cleaved caspase-9 to beta-actin level at 2 uM after 48 hrs by Western blot analysis (reference value: 0.17); assay type: functional
[7] = tested on: Bel7402/5-FU; experiment: Induction of microtubule disruption in human Bel7402/5-FU cells at 2 uM after 24 to 48 hrs by DAPI staining based immunofluorescence microscopic method; assay type: functional, cell-based
[8] = tested on: Bel7402/5-FU; experiment: Induction of apoptosis in human Bel7402/5-FU cells assessed as ratio of cleaved PARP to beta-actin level at 2 uM after 48 hrs by Western blot analysis (reference value: 0.2); assay type: functional
[9] = target: Signal transducer and activator of transcription 3 (Homo sapiens) (UniProt P40763); experiment: Effect on STAT3 phosphorylation in human Bel7402/5-FU cells assessed as ratio of phosphorylated STAT3 to beta-actin level at 2 uM after 48 hrs by Western blot analysis (reference value: 0.3); assay type: cell-based
Chain of Signal transducer and activator of transcription 3 (Homo sapiens) (P40763 whole entry): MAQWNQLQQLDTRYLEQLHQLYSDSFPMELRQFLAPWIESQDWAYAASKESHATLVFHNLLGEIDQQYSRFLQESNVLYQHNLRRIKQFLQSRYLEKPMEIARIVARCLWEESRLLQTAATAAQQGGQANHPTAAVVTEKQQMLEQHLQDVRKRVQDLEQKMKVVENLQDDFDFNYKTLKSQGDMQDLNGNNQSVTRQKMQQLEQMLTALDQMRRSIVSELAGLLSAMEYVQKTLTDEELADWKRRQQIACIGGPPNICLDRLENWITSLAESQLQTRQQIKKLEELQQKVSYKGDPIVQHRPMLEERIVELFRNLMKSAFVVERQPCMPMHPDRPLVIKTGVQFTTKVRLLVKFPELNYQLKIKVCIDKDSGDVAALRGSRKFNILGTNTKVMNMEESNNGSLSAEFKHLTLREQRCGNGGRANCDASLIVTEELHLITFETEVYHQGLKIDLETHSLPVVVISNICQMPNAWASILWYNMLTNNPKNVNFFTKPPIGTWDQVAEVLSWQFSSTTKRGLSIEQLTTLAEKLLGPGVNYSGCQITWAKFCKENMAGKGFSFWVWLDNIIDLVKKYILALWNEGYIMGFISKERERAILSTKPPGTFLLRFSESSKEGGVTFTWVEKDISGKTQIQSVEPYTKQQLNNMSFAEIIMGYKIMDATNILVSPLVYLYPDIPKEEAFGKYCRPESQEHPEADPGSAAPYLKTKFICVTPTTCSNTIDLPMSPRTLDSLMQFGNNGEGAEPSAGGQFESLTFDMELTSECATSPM

[10] = tested on: Bel7402/5-FU; experiment: Effect on CDK2 expression in human Bel7402/5-FU cells assessed as ratio of CDK2 to beta-actin level at 2 uM after 48 hrs by Western blot analysis (reference value: 0.43); assay type: functional
[11] = tested on: Bel7402/5-FU; experiment: Antiproliferative activity against human Bel7402/5-FU cells after 72 hrs by CCK-8 assay; assay type: functional, cell-based
[12] = tested on: Bel7402/5-FU; experiment: Reduction in microtubule density in human Bel7402/5-FU cells at 2 uM after 24 to 48 hrs by DAPI staining based immunofluorescence microscopic method; assay type: functional, cell-based
[13] = tested on: Bel7402/5-FU; experiment: Effect on VEGFR2 expression in human Bel7402/5-FU cells assessed as ratio of VEGFR2 to beta-actin level at 2 uM after 48 hrs by Western blot analysis (reference value: 0.25); assay type: functional
[14] = target: RAC-alpha serine/threonine-protein kinase (Homo sapiens) (UniProt P31749); experiment: Effect on AKT phosphorylation in human Bel7402/5-FU cells assessed as ratio of phosphorylated AKT to beta-actin level at 2 uM after 48 hrs by Western blot analysis (reference value: 0.39); assay type: cell-based
Chain of RAC-alpha serine/threonine-protein kinase (Homo sapiens) (P31749 whole entry): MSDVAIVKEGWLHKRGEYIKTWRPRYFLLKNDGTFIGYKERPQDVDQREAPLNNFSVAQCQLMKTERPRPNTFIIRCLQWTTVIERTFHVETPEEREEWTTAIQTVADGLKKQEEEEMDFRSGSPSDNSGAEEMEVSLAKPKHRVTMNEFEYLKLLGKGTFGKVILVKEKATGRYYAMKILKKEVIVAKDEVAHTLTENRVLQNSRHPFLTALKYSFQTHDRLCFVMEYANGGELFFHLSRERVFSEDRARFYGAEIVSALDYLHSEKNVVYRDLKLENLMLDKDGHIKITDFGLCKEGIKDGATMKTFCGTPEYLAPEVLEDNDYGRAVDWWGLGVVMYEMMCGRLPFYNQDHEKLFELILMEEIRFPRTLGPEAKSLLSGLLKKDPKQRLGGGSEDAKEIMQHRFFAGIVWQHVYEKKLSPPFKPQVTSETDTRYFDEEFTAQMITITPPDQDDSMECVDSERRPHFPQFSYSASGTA

[15] = tested on: Bel7402/5-FU; experiment: Induction of apoptosis in human Bel7402/5-FU cells assessed as condensed nuclei at 2 uM after 24 hrs by Hoechst 33342 staining based fluorescent microscopic method; assay type: functional, cell-based
[16] = tested on: Bel7402/5-FU; experiment: Effect on MMP2 expression in human Bel7402/5-FU cells assessed as ratio of MMP2 to beta-actin level at 2 uM after 48 hrs by Western blot analysis (reference value: 0.3); assay type: functional
[17] = tested on: Bel7402/5-FU; experiment: Induction of apoptosis in human Bel7402/5-FU cells assessed as reduction in cell number at 2 uM after 24 hrs by Hoechst 33342 staining based fluorescent microscopic method; assay type: functional
[18] = tested on: Bel7402/5-FU; experiment: Effect on CDK1 expression in human Bel7402/5-FU cells assessed as ratio of CDK1 to beta-actin level at 2 uM after 48 hrs by Western blot analysis (reference value: 0.33); assay type: functional
[19] = tested on: Bel7402/5-FU; experiment: Induction of apoptosis in human Bel7402/5-FU cells at 2 uM after 24 hrs by Hoechst 33342 staining based fluorescent microscopic method; assay type: functional, cell-based
[20] = tested on: Bel7402/5-FU; experiment: Effect on COX2 expression in human Bel7402/5-FU cells assessed as ratio of COX2 to beta-actin level at 2 uM after 48 hrs by Western blot analysis (reference value: 0.36); assay type: functional
[21] = tested on: L02; experiment: Antiproliferative activity against human LO2 cells after 72 hrs by CCK-8 assay; assay type: cell-based; conditions: L02, 72 h
[22] = tested on: Bel7402/5-FU; experiment: Effect on COX1 expression in human Bel7402/5-FU cells assessed as ratio of COX1 to beta-actin level at 2 uM after 48 hrs by Western blot analysis (reference value: 0.48); assay type: functional
[23] = tested on: Bel7402/5-FU; experiment: Antimigratory activity in human Bel7402/5-FU cells at 2 uM after 24 hrs by wound healing assay; assay type: functional, cell-based
[24] = tested on: Bel7402/5-FU; experiment: Effect on MRP1 expression in human Bel7402/5-FU cells assessed as ratio of MRP1 to beta-actin level at 2 uM after 48 hrs by Western blot analysis (reference value: 0.58); assay type: functional
[25] = tested on: Bel7402/5-FU; experiment: Induction of apoptosis in human Bel7402/5-FU cells assessed as late apoptotic cells at 2 uM after 48 hrs by Annexin V-APC/7-AAD staining based flow cytometry (reference value: 3%); assay type: functional
[26] = tested on: Bel7402/5-FU; experiment: Cell cycle arrest in human Bel7402/5-FU cells assessed as accumulation at S phase at 2 uM after 48 hrs by propidium iodide staining based flow cytometry (reference value: 12.62%); assay type: functional
[27] = tested on: Bel7402/5-FU; experiment: Effect on P-gp expression in human Bel7402/5-FU cells assessed as ratio of P-gp to beta-actin level at 2 uM after 48 hrs by Western blot analysis (reference value: 0.59); assay type: functional
[28] = target: Mitogen-activated protein kinase; ERK1/ERK2 (Homo sapiens) (UniProt P27361+P28482); experiment: Effect on ERK1/2 phosphorylation in human Bel7402/5-FU cells assessed as ratio of phosphorylated ERK1/2 to beta-actin level at 2 uM after 48 hrs by Western blot analysis (reference value: 0.59); assay type: cell-based
Chain of Mitogen-activated protein kinase; ERK1/ERK2 (Homo sapiens) (P27361 whole entry, looked up): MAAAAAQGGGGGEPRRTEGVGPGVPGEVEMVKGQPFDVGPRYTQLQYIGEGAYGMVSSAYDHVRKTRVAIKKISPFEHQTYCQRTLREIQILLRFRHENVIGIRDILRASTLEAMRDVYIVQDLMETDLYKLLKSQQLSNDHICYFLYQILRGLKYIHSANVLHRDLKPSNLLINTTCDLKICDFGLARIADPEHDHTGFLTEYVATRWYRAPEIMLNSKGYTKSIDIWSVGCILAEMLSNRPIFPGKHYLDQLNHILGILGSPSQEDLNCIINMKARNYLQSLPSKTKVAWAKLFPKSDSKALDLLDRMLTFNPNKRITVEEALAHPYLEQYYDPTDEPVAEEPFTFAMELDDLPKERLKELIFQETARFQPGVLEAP
Chain of Mitogen-activated protein kinase; ERK1/ERK2 (Homo sapiens) (P28482 whole entry, looked up): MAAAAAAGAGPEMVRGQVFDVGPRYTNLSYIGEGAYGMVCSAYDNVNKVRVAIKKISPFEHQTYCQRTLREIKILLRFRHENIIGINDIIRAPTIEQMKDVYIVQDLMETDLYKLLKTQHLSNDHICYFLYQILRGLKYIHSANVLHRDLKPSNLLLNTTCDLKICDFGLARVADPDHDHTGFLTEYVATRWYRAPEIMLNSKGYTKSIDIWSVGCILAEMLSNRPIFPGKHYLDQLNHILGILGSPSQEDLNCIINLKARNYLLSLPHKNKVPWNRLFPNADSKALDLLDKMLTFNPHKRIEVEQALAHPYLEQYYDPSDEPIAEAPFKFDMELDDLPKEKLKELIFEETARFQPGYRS

[29] = tested on: Bel7402/5-FU; experiment: Cell cycle arrest in human Bel7402/5-FU cells assessed as accumulation at G1 phase at 2 uM after 48 hrs by propidium iodide staining based flow cytometry (reference value: 52.21%); assay type: functional
[30] = tested on: Bel7402/5-FU; experiment: Induction of apoptosis in human Bel7402/5-FU cells assessed as early apoptotic cells at 2 uM after 48 hrs by Annexin V-APC/7-AAD staining based flow cytometry (reference value: 5.24%); assay type: functional
[31] = tested on: Bel7402/5-FU; experiment: Cell cycle arrest in human Bel7402/5-FU cells assessed as accumulation at G2 phase at 2 uM after 48 hrs by propidium iodide staining based flow cytometry (reference value: 35.16%); assay type: functional
[32] = tested on: Bel7402/5-FU; experiment: Induction of apoptosis in human Bel7402/5-FU cells assessed as ratio of cleaved caspase-3 to beta-actin level at 2 uM after 48 hrs by Western blot analysis (reference value: 0.19); assay type: functional
[33] = Resistant factor, ratio of IC50 for human Bel7402/5-FU cells to IC50 for human Bel7402 cells; assay type: functional
[34] = tested on: Bel7402/5-FU; experiment: Effect on cyclinB1 expression in human Bel7402/5-FU cells assessed as ratio of cyclinB1 to beta-actin level at 2 uM after 48 hrs by Western blot analysis (reference value: 0.53); assay type: functional
[35] = tested on: Bel7402/5-FU; experiment: Effect on cyclinA expression in human Bel7402/5-FU cells assessed as ratio of cyclinA to beta-actin level at 2 uM after 48 hrs by Western blot analysis (reference value: 0.39); assay type: functional
[36] = tested on: Bel-7402; experiment: Antiproliferative activity against human Bel7402 cells after 72 hrs by CCK-8 assay; assay type: functional, cell-based; conditions: Bel-7402, 72 h
[37] = tested on: Bel7402/5-FU; experiment: Induction of apoptosis in human Bel7402/5-FU cells assessed as ratio of cleaved caspase-8 to beta-actin level at 2 uM after 48 hrs by Western blot analysis (reference value: 0.17); assay type: functional

COc1ccc2c(c1)c(CC(=O)O[C@H]1c3cc4c(cc3[C@@H](c3cc(OC)c(OC)c(OC)c3)[C@H]3C(=O)OC[C@@H]31)OCO4)c(C)n2C(=O)c1ccc(Cl)cc1
Ratio [1]: 0.12 | Activity [2]: 66.98% | Activity [3]: Active | Ratio [4]: 0.2 | Activity [5]: 7.18% | Ratio [6]: 0.33 | Activity [7]: Active | Ratio [8]: 0.35 | Ratio [9]: 0.37 | Ratio [10]: 0.37 | IC50 [11]: 2.16 µM | Activity [12]: Active | Ratio [13]: 0.17 | Ratio [14]: 0.4 | Activity [15]: Active | Ratio [16]: 0.28 | Activity [17]: Active | Ratio [18]: 0.3 | Activity [19]: Active | Ratio [20]: 0.36 | IC50 [21]: 1.86 µM | Ratio [22]: 0.42 | Activity [23]: Active | Ratio [24]: 0.39 | Activity [25]: 20.65% | Activity [26]: 21.81% | Ratio [27]: 0.63 | Ratio [28]: 0.54 | Activity [29]: 27.1% | Activity [30]: 5.19% | Activity [31]: 51.09% | Ratio [32]: 0.45 | Ratio IC50 [33]: 0.36 | Ratio [34]: 0.51 | Ratio [35]: 0.26 | IC50 [36]: 5.9 µM | Ratio [37]: 0.33
